Results on 17 compounds are retold here after ChEMBL document CHEMBL1140762, “Acridones circumvent P-glycoprotein-associated multidrug resistance (MDR) in cancer cells” (Bioorg Med Chem, 2008).

A short description of data set [1]: Lipophilicity, log P of the compound. The format is physicochemical. As to conditions: octanol/water.
The target in data set [2] is T1, ATP-dependent translocase ABCB1 (Homo sapiens, UniProt P08183). Nature of the data set: Inhibition of P-glycoprotein in MDR human KBChR-8-5 cells assessed as retention of [3H]VLB after 2 hrs. The data set is classed as cell-based. More on the design: concentration or dose not given beside the values.
T1 sequence (P08183 whole entry): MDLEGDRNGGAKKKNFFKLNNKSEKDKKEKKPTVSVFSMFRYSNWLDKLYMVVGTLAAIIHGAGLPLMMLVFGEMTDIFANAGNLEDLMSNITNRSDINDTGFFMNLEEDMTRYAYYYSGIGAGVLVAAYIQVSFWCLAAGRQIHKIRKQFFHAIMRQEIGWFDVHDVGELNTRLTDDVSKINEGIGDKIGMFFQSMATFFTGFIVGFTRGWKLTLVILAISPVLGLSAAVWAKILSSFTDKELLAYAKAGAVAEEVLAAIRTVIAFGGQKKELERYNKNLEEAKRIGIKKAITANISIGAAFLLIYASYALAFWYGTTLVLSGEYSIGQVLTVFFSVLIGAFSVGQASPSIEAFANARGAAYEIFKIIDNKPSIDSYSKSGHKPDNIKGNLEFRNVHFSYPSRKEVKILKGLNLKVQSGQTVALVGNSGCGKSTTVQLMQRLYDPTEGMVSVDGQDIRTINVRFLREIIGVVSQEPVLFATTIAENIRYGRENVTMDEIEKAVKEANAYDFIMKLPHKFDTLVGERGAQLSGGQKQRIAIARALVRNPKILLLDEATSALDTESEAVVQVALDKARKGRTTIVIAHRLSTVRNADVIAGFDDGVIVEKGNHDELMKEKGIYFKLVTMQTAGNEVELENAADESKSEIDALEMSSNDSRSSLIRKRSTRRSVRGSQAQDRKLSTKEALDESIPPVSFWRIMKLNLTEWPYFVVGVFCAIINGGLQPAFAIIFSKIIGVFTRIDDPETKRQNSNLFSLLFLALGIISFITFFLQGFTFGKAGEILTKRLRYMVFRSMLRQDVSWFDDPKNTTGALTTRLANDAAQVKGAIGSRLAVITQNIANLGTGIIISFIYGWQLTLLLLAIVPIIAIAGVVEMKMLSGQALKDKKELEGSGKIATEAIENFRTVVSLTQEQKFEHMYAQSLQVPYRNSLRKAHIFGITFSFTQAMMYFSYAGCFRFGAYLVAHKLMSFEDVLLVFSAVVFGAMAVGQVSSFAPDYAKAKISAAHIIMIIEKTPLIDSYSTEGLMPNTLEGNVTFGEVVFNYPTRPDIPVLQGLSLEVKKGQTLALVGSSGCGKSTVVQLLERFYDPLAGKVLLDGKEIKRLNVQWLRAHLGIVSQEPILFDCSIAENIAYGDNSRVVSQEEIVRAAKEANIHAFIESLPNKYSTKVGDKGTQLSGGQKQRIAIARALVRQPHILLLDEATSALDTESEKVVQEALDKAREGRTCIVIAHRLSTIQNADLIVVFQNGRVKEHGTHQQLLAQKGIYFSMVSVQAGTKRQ
Data set [3] concerns KB-Vi. Nature of the data set: Displacement of [3H]azidopine from human P-glycoprotein in KB-Vi cells. The format is cell-based. More on the design: concentration or dose not given beside the values. (Loss of bound radioactivity is the signal in a displacement assay; it reports binding, not function.)
The nature of data set [4]: Dissociation constant, pKa of the compound. The data set is classed as physicochemical.
The target of data set [5] is T1, ATP-dependent translocase ABCB1. Nature of the data set: Inhibition of P-glycoprotein in MDR human KBChR-8-5 cells assessed as uptake of vinblastin relative to control. The data set is classed as cell-based. More on the design: concentration or dose not given beside the values.
For data set [6], the system named is MDR. Nature of the data set: Cytotoxicity against MDR human KBChR cells. The format is functional, cell-based.

Consider `O=c1c2ccccc2n(CCCCl)c2ccc(Cl)cc12`, for which the logP – broadly, a log measure of how a compound divides between an organic and an aqueous phase – in data set [1] was 1.38. Besides, the Activity was determined as 40% in data set [2], 83% in data set [3] and 880% in data set [5]. The pKa – broadly, the pH at which an ionisable group is half protonated – in data set [4] is 8.65. Moreover, in data set [6], the IC10 (in general, the concentration at which the effect reaches the 10% level) is 1.35 µM. Also, in data set [6], the IC50 – broadly, the concentration that inhibits the measured activity by half – is 15 µM.
The compound `O=c1c2ccccc2n(CCCCN(CCO)CCO)c2ccc(Cl)cc12` showed a logP in data set [1] of 1.67. In addition, the Activity came out at 74% in data set [2], 20% in data set [3] and 1219% in data set [5]. This compound also came in with a pKa in data set [4] of 4.8. Moreover, the 10% effect level in data set [6] (IC10) was put at 0.6 µM. This compound registered an IC50 in data set [6] of 5 µM.
As to `O=c1c2ccccc2n(CCCN2CCCC2)c2ccc(Cl)cc12`, the logP in data set [1] was determined as 1.55. For the same compound, the Activity in data set [2] amounted to 56%; in data set [3], 50%; in data set [5], 988%. In data set [4], this compound had a pKa of 5.21. Moreover, the IC10 in data set [6] stood at 0.9 µM. This compound also had a concentration for half-maximal inhibition (IC50) in data set [6] of 14 µM.
The compound `O=c1c2ccccc2n(CCCN2CCOCC2)c2ccc(Cl)cc12` registered a lipophilicity (logP) in data set [1] of 1.64. Besides, the Activity in data set [2] is 62%; in data set [3], 30%; in data set [5], 1372%. In data set [4], this compound gave a pKa of 4.87. The same compound gave an IC10 in data set [6] of 1.15 µM. The midpoint of inhibition in data set [6], the IC50, lay at 10.5 µM.
In turn, `O=c1c2ccccc2n(CCCCCl)c2ccc(Cl)cc12` had a lipophilicity (logP) in data set [1] of 1.68. Further, the Activity was 60.5% in data set [2], 70% in data set [3] and 982% in data set [5]. Also, the pKa in data set [4] was determined as 8.85. In data set [6], this compound registered an IC10 of 1.25 µM. Besides, it took 10.8 µM to reach half-maximal inhibition in data set [6] (IC50).
`O=c1c2ccccc2n(CCCCN2CCCCC2)c2ccc(Cl)cc12` displayed a logP in data set [1] of 2.01. Moreover, the Activity was found to be 77% in data set [2], 15% in data set [3] and 1855% in data set [5]. Also, in data set [4], the pKa amounted to 5.36. The same compound came in with an IC10 in data set [6] of 0.6 µM. Further, the IC50 in data set [6] amounted to 5.2 µM.
As for `O=c1c2ccccc2n(CCCCN2CCOCC2)c2ccc(Cl)cc12`, the logP in data set [1] came out at 1.89. The Activity was determined as 76% in data set [2], 15% in data set [3] and 1690% in data set [5]. The same compound came in with a pKa in data set [4] of 4.91. In addition, the 10% effect level in data set [6] (IC10) was put at 0.72 µM. The same compound had an IC50 in data set [6] of 6 µM.
`O=c1c2ccccc2n(CCCCN2CCCC2)c2ccc(Cl)cc12` showed a logP in data set [1] of 1.74. The Activity in data set [2] was 79%; in data set [3] it was 30%; in data set [5], 1010%. The compound further registered a pKa in data set [4] of 5.28. In data set [6], this compound had an IC10 of 1.85 µM. In data set [6], half-maximal inhibition (IC50) was put at 12.5 µM.
`CCN(CC)CCCn1c2ccccc2c(=O)c2cc(Cl)ccc21` returned a logP in data set [1] of 1.54. For the same compound, the Activity in data set [2] came out at 47%; in data set [3], 80%; in data set [5], 948%. For the same compound, in data set [4], the pKa turned out to be 5.37. The compound further had an IC10 in data set [6] of 1 µM. This compound also displayed an IC50 in data set [6] of 12.5 µM.
In turn, `O=c1c2ccccc2n(CCCCN2CCN(CCO)CC2)c2ccc(Cl)cc12` registered a logP in data set [1] of 2.25. Further, the Activity was 80.5% in data set [2], 10% in data set [3] and 2010% in data set [5]. Also, the pKa in data set [4] was 5.26. The compound also yielded an IC10 in data set [6] of 0.46 µM. For the same compound, the IC50 in data set [6] worked out at 4.5 µM.
On to `CN1CCN(CCCCn2c3ccccc3c(=O)c3cc(Cl)ccc32)CC1`, for which the logP in data set [1] was 1.95. Further, the results for the Activity in data set [2], in data set [3] and in data set [5] were 75%, 20% and 1420%, respectively. Also, the pKa in data set [4] came to 5.61. In addition, in data set [6], it took 0.8 µM to reach the 10% level (IC10). Moreover, in data set [6], the IC50 turned out to be 8 µM.
The compound `O=c1c2ccccc2n(CCCN2CCCCC2)c2ccc(Cl)cc12` registered a logP in data set [1] of 1.52. In addition, the Activity in data set [2] came out at 54.5%; in data set [3] it was 50%; in data set [5], 927%. This compound also displayed a pKa in data set [4] of 5.39. In data set [6], this compound yielded an IC10 of 1.25 µM. In data set [6], this compound displayed an IC50 of 15.5 µM.
With `CCN(CC)CCCCn1c2ccccc2c(=O)c2cc(Cl)ccc21`, the logP in data set [1] turned out to be 1.9. The figures for the Activity in data set [2], in data set [3] and in data set [5] were 77.2%, 20% and 1356%, respectively. The same compound showed a pKa in data set [4] of 5.45. In data set [6], the 10% effect level (IC10) was put at 0.62 µM. Also, it took 9.1 µM to reach half-maximal inhibition in data set [6] (IC50).
Consider `O=c1c2ccccc2n(CCCN2CCN(CCO)CC2)c2ccc(Cl)cc12`, for which the logP in data set [1] is 1.76. Moreover, the Activity is 56.5% in data set [2], 35% in data set [3] and 1252% in data set [5]. In data set [4], this compound came in with a pKa of 5.26. The same compound gave an IC10 in data set [6] of 0.74 µM. The compound also registered an IC50 in data set [6] of 7.5 µM.
In the case of `O=c1c2ccccc2n(CCCN(CCO)CCO)c2ccc(Cl)cc12`, in data set [1], the logP stood at 1.47. In addition, the Activity in data set [2] came out at 66%; in data set [3], 40%; in data set [5], 1017%. Also, the pKa in data set [4] was found to be 4.8. For the same compound, it took 1.2 µM to reach the 10% level in data set [6] (IC10). Further, in data set [6], inhibition was half-maximal at 8.7 µM (IC50).
In data set [1], `O=c1c2ccccc2[nH]c2ccc(Cl)cc12` had a logP of 2.06. In addition, the Activity in data set [2] came out at 49%; in data set [3] it was 85%; in data set [5], 715%. This compound registered a pKa in data set [4] of 8.29. In data set [6], the IC10 was found to be 1.41 µM. The compound further registered an IC50 in data set [6] of 18 µM.
On to `CN1CCN(CCCn2c3ccccc3c(=O)c3cc(Cl)ccc32)CC1`, for which the logP in data set [1] was 1.48. Moreover, the Activity in data set [2] turned out to be 51%; in data set [3] it was 45%; in data set [5] it was 1010%. The compound further registered a pKa in data set [4] of 5.28. It took 0.8 µM to reach the 10% level in data set [6] (IC10). Besides, inhibition in data set [6] was half-maximal at 9 µM (IC50).
